# In patent EP0183129A1, “Quinolonecarboxylic acid derivatives” (KYORIN PHARMACEUTICAL CO., LTD., priority 1984, dated 1986):
# How the values were obtained:
# P. aeruginosa IID 1210 = test: In vitro antibacterial activity, MIC (standard strain); assay type: cell-based; conditions: Pseudomonas aeruginosa, IID1210; P. aeruginosa IID 1210; 10^6 cells/ml; standard strain; read-out: MIC
# S. pyogenes 4372 = test: In vitro antibacterial activity, MIC (clinical isolates); assay type: cell-based; conditions: Streptococcus pyogenes; S. pyogenes 4372; 10^6 cells/ml; clinical isolate; read-out: MIC
# E. coli ML 4707 = test: In vitro antibacterial activity, MIC (standard strain); assay type: cell-based; conditions: Escherichia coli, ML4707; E. coli ML 4707; 10^6 cells/ml; standard strain; read-out: MIC
# S. pneumoniae 3227 = test: In vitro antibacterial activity, MIC (clinical isolates); assay type: cell-based; conditions: Streptococcus pneumoniae; S. pneumoniae 3227; 10^6 cells/ml; clinical isolate; read-out: MIC
# [1] = test system: Fusobacterium varium KYA 8501; test: In vitro antibacterial activity, MIC (standard strain); assay type: cell-based; conditions: Fusobacterium varium, KYA8501, Fusobacterium varium KYA 8501; 10^6 cells/ml; standard strain; read-out: MIC
# S. pneumoniae 15 = test: In vitro antibacterial activity, MIC (clinical isolates); assay type: cell-based; conditions: Streptococcus pneumoniae; S. pneumoniae 15; 10^6 cells/ml; clinical isolate; read-out: MIC
# [2] = test system: Salmonella entritidis IID 604; test: In vitro antibacterial activity, MIC (standard strain); assay type: cell-based; conditions: IID604; Salmonella entritidis IID 604; 10^6 cells/ml; standard strain; read-out: MIC
# S. faecalis 402 = test: In vitro antibacterial activity, MIC (clinical isolates); assay type: cell-based; conditions: Enterococcus faecalis; S. faecalis 402; 10^6 cells/ml; clinical isolate; read-out: MIC
# [3] = test system: Staphylococcus aureus 209 P; test: In vitro antibacterial activity, MIC (standard strain); assay type: cell-based; conditions: Staphylococcus aureus 209 P; 10^6 cells/ml; standard strain; read-out: MIC
# S. epidermidis IID 866 = test: as above; assay type: cell-based; conditions: Staphylococcus epidermidis, IID866, S. epidermidis IID 866; 10^6 cells/ml; standard strain; read-out: MIC
# S. agalactiae 4394 = test: In vitro antibacterial activity, MIC (clinical isolates); assay type: cell-based; conditions: Streptococcus agalactiae; S. agalactiae 4394; 10^6 cells/ml; clinical isolate; read-out: MIC
# S. faecalis IID 682 = test: In vitro antibacterial activity, MIC (standard strain); assay type: cell-based; conditions: Enterococcus faecalis, IID682; S. faecalis IID 682; 10^6 cells/ml; standard strain; read-out: MIC
# [4] = test system: Enterobacter cloacae IID 977; test: as above; assay type: cell-based; conditions: Enterobacter cloacae, IID977, Enterobacter cloacae IID 977; 10^6 cells/ml; standard strain; read-out: MIC
# B. fragilis 25285 = test: as above; assay type: cell-based, Bacteroides fragilis; conditions: Bacteroides fragilis, 25285, B. fragilis 25285; 10^6 cells/ml; standard strain; read-out: MIC
# [5] = test system: Bacillus subtilis PCI 219; test: as above; assay type: cell-based; conditions: PCI219; Bacillus subtilis PCI 219; 10^6 cells/ml; standard strain; read-out: MIC
# [6] = test system: Klebsiella pneumoniae KY(GN)6445; test: as above; assay type: cell-based; conditions: Klebsiella pneumoniae KY(GN)6445; 10^6 cells/ml; standard strain; read-out: MIC
# S. marcescens GN 7577 = test: as above; assay type: cell-based; conditions: Serratia marcescens, GN7577; S. marcescens GN 7577; 10^6 cells/ml; standard strain; read-out: MIC
# [7] = test system: Streptococcus pyogenes S-8; test: as above; assay type: cell-based; conditions: S8; Streptococcus pyogenes S-8; 10^6 cells/ml; standard strain; read-out: MIC
# S. pyogenes 3130 = test: In vitro antibacterial activity, MIC (clinical isolates); assay type: cell-based; conditions: Streptococcus pyogenes, read-out: MIC
# S. pyogenes 3102 = test: as above; assay type: cell-based; conditions: Streptococcus pyogenes; S. pyogenes 3102; 10^6 cells/ml; clinical isolate; read-out: MIC
# K. pneumoniae 1-220S = test: In vitro antibacterial activity, MIC (standard strain); assay type: cell-based; conditions: Klebsiella pneumoniae, 1220S; K. pneumoniae 1-220S; 10^6 cells/ml; standard strain; read-out: MIC
# S. agalactiae 4470 = test: In vitro antibacterial activity, MIC (clinical isolates); assay type: cell-based; conditions: Streptococcus agalactiae; S. agalactiae 4470; 10^6 cells/ml; clinical isolate; read-out: MIC
# S. agalactiae 4468 = test: as above; assay type: cell-based; conditions: Streptococcus agalactiae; S. agalactiae 4468; 10^6 cells/ml; clinical isolate; read-out: MIC
# S. pneumoniae IID 552 = test: In vitro antibacterial activity, MIC (standard strain); assay type: cell-based; conditions: Streptococcus pneumoniae, IID552; S. pneumoniae IID 552; 10^6 cells/ml; standard strain; read-out: MIC
# S. faecalis 49 = test: In vitro antibacterial activity, MIC (clinical isolates); assay type: cell-based; conditions: Enterococcus faecalis; S. faecalis 49; 10^6 cells/ml; clinical isolate; read-out: MIC
# E. coli ATCC 10536 = test: In vitro antibacterial activity, MIC (standard strain); assay type: cell-based; conditions: Escherichia coli, ATCC10536; E. coli ATCC 10536; 10^6 cells/ml; standard strain; read-out: MIC
# S. aureus Smith = test: as above; assay type: cell-based, Staphylococcus aureus; conditions: Staphylococcus aureus; S. aureus Smith; 10^6 cells/ml; standard strain; read-out: MIC
# [8] = test system: Yersinia enterocolitica IID 981; test: as above; assay type: cell-based; conditions: IID981; Yersinia enterocolitica IID 981; 10^6 cells/ml; standard strain; read-out: MIC
# [9] = test system: Clostridium perfringens KYA 13123; test: microbe, parasite or virus in culture; assay type: cell-based; conditions: KYA13123
# [10] = test system: Acinetobacter anitratus IID 876; test: In vitro antibacterial activity, MIC (standard strain); assay type: cell-based; conditions: Acinetobacter calcoaceticus, IID876, Acinetobacter anitratus IID 876; 10^6 cells/ml; standard strain; read-out: MIC
# S. agalactiae 4342 = test: In vitro antibacterial activity, MIC (clinical isolates); assay type: cell-based; conditions: Streptococcus agalactiae; S. agalactiae 4342; 10^6 cells/ml; clinical isolate; read-out: MIC
Structure (SMILES),MIC (P. aeruginosa IID 1210) [µg/mL],MIC (S. pyogenes 4372) [µg/mL],MIC (E. coli ML 4707) [µg/mL],MIC (S. pneumoniae 3227) [µg/mL],MIC [1] [µg/mL],MIC (S. pneumoniae 15) [µg/mL],MIC [2] [µg/mL],MIC (S. faecalis 402) [µg/mL],MIC [3] [µg/mL],MIC (S. epidermidis IID 866) [µg/mL],MIC (S. agalactiae 4394) [µg/mL],MIC (S. faecalis IID 682) [µg/mL],MIC [4] [µg/mL],MIC (B. fragilis 25285) [µg/mL],MIC [5] [µg/mL],MIC [6] [µg/mL],MIC (S. marcescens GN 7577) [µg/mL],MIC [7] [µg/mL],MIC (S. pyogenes 3130) [µg/mL],MIC (S. pyogenes 3102) [µg/mL],further results
"CNCC1CCN(c2c(F)cc3c(=O)c(C(=O)O)cn(C4CC4)c3c2Br)C1 (stereo not drawn) [Example 16, 8-Bromo-1-cyclopropyl-6-fluoro-1,4-dihydro-7-(3-methylaminomethyl-l-pyrrolidinyl)-4-oxo-3-quinolinecarboxylic acid]",1.56,0.05,0.025,0.05,0.39,0.05,0.05,0.1,0.0125,0.025,0.1,0.05,0.1,0.1,0.0125,0.05,0.78,0.05,0.05,0.05,MIC (K. pneumoniae 1-220S): 0.1 µg/mL; MIC (S. agalactiae 4470): 0.05 µg/mL; MIC (S. agalactiae 4468): 0.05 µg/mL; MIC (S. pneumoniae IID 552): 0.05 µg/mL; MIC (S. faecalis 49): 0.1 µg/mL; MIC (E. coli ATCC 10536): 0.025 µg/mL; MIC (S. aureus Smith): 0.0125 µg/mL; MIC [8]: 0.1 µg/mL; MIC [9]: 0.1 µg/mL; MIC [10]: 0.05 µg/mL; MIC (S. agalactiae 4342): 0.05 µg/mL
"CCNCC1CCN(c2c(F)cc3c(=O)c(C(=O)O)cn(CC)c3c2F)C1 (centres unmarked) [Ref.1, 1-Ethyl-7-(3-ethylaminomethyl-1-pyrrolidinyl)-6,8-difluoro-1,4-dihydro-4-oxo-3-quinolinecarboxylic acid, reference compound]",12.5,0.2,0.1,0.39,6.25,0.2,0.39,0.78,0.05,0.1,0.78,0.2,0.2,6.25,0.05,0.2,6.25,0.2,0.2,0.2,MIC (K. pneumoniae 1-220S): 0.39 µg/mL; MIC (S. agalactiae 4470): 0.39 µg/mL; MIC (S. agalactiae 4468): 0.39 µg/mL; MIC (S. pneumoniae IID 552): 0.2 µg/mL; MIC (S. faecalis 49): 0.39 µg/mL; MIC (E. coli ATCC 10536): 0.1 µg/mL; MIC (S. aureus Smith): 0.1 µg/mL; MIC [8]: 0.39 µg/mL; MIC [9]: 1.56 µg/mL; MIC [10]: 0.78 µg/mL; MIC (S. agalactiae 4342): 0.39 µg/mL
